{"source": "patent US9745255B2", "about": "“Meta-substituted biphenyl peripherally restricted FAAH inhibitors” (The Regents of the University of California, priority 2011, dated 2017)", "key": {"[1]": {"system": "carrageenan-induced edema in male CD1 mice", "test": "Carrageenan-induced paw edema", "format": "in vivo, mouse", "conditions": "oral administration, 10 and 30 mg/kg, vs. vehicle (FIG. 1)", "procedure": "(§1) Peripheral inflammation was induced by intraplantar (i.pl.) injection of the polysaccharide λ-carrageenan (i.pl. 1% weight vol^−1 in sterile water, 20 μL) into the left hind paw of male CD1 mice.\nPaw edema was induced in mice by injection into the right hind paws of 50 μL, of sterile saline containing 1% λ-carrageenan. Paw volumes were measured using a plethysmometer (Ugo Basile, Milan, Italy). […] The increase in paw volume (mL) was evaluated as the difference between the paw volume measured at each time point and the basal paw volume measured immediately before carrageenan injection."}, "[2]": {"system": "carrageenan-induced hyperalgesia in male CD1 mice", "test": "Carrageenan-induced thermal hyperalgesia", "format": "in vivo, mouse", "conditions": "oral administration, p<0.001 vs. vehicle (FIG. 3)", "procedure": "as §1\n(§2) Nocifensive responses were measured elicited by intraplantar injection of carrageenan in male CD1 mice (LoVerme, J., La Rana, G., Russo, R., Calignano, A., & Piomelli, D., The search for the palmitoylethanolamide receptor. Life Sci 77 (14), 1685-1698 (2005)).\n(§3) Mechanical hyperalgesia was determined by measuring the latency in seconds to withdraw the paw away from a constant mechanical pressure exerted onto the dorsal surface. […] Withdrawal threshold was measured on the inflamed ipsilateral paw at different time points after oral drug administration. […] Thermal hyperalgesia was assessed as described (Hargreaves, K., Dubner, R., Brown, F., Flores, C., & Joris, J., A new and sensitive method for measuring thermal nociception in cutaneous hyperalgesia. Pain 32 (1), 77-88 (1988)), measuring the latency to withdraw the hindpaw from a focused beam of radiant heat (thermal intensity: infrared 3.0) applied to the plantar surface using a plantar test apparatus (Ugo Basile, Italy). […] Withdrawal latency was measured on the inflamed ipsilateral paw at different time points after oral drug administration. […]"}, "[3]": {"system": "carrageenan-induced hyperalgesia in male CD1 mice", "test": "Carrageenan-induced mechanical hyperalgesia", "format": "in vivo, mouse", "conditions": "oral administration, p<0.001 vs. vehicle (FIG. 2)", "procedure": "as §1, §2, §3"}, "[4]": {"biological_target": "T1, FAAH (Mus musculus, UniProt O08914)", "T1 sequence (O08914 1-579)": "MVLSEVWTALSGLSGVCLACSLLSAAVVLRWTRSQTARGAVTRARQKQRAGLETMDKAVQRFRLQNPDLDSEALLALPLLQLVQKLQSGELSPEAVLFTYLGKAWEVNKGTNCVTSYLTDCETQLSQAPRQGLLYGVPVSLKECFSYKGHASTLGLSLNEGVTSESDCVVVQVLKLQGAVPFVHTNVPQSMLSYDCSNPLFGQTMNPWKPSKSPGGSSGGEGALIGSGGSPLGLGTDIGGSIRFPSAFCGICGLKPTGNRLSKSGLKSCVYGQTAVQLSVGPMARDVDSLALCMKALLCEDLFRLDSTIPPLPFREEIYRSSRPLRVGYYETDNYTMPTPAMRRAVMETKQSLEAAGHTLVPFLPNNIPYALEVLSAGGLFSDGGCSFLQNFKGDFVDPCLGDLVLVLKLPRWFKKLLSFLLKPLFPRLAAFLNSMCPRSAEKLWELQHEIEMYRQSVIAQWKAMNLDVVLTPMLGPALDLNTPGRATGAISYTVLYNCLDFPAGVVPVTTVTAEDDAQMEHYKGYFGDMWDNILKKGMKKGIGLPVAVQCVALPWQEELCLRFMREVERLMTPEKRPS", "test": "Ex vivo FAAH activity in liver and brain tissue extracts after i.p. administration to mice", "parameters": "from tissue; host or cells: mouse liver and brain, membrane fraction of tissue extracts", "conditions": "for inhibition at 1 mg/kg: mouse, ip, Table 1, mice, 1 mg/kg intraperitoneal, killed 2 h after administration, ex vivo", "procedure": "(§4) Comparison of compounds according to the invention with other peripherally restricted FAAH inhibitors for their ability to inhibit FAAH in the periphery. […] In particular, (1) IC50 values were generated in vitro using a FAAH assay. […] Mice received a 1 mg/kg dose of each compound by the intraperitoneal route, and were killed 2 h after administration. Tissues were collected and FAAH activity was measured ex vivo in tissue extracts (membrane fraction) using the FAAH assay."}, "[5]": {"test": "Brain entry after systemic administration in mice", "format": "in vivo, mouse", "conditions": "inferred from Table 3", "description": "The activity of compounds of Formula I as peripherally restricted FAAH inhibitors was found based in part on the polarity of the p-hydroxyphenyl moiety."}, "[6]": {"biological_target": "T2, FAAH (Rattus norvegicus, UniProt P97612)", "T2 construct": "Wistar rats were typically used for the FAAH studies; from tissue; host or cells: Wistar rat", "T2 sequence (P97612 1-579)": "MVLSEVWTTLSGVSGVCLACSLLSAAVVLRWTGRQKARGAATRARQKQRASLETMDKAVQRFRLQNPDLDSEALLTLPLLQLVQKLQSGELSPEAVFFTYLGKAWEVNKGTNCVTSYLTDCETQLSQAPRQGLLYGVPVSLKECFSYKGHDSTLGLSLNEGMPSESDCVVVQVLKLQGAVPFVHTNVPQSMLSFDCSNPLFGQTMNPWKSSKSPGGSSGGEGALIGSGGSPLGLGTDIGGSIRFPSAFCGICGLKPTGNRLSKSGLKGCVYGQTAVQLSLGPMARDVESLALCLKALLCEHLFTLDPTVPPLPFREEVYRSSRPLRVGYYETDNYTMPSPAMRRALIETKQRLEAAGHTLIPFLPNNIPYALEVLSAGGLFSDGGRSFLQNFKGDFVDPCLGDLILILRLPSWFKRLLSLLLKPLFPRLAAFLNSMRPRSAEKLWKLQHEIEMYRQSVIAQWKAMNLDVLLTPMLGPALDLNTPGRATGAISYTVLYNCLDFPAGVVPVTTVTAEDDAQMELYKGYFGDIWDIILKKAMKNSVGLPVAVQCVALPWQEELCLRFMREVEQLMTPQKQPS", "test": "In vitro FAAH assay (IC50, Tables 1 and 2)", "format": "biochemical", "procedure": "Male Swiss Webster and CD1 mice (Charles River, 20-30 g) were used. Mice were group-housed in standard cages at room temperature on a 12:12 h light:dark cycle with unlimited access to water and standard chow pellets. Wistar rats were typically used for the FAAH studies. All experiments met the National Institutes of Health guidelines for the care and use of laboratory animals, were approved by the Institutional Animal Care and Use Committee of the University of California, Irvine, and the University of Georgia, Athens, and were in compliance with the European Community Council Directive 86 (609) EEC and the experimental protocol was carried out in compliance with Italian regulations (DL 116/92).\nas §4"}, "[7]": {"biological_target": "T1, FAAH", "test": "FAAH activity and anandamide levels outside the CNS", "parameters": "suppressed FAAH activity and increased anandamide levels outside the central nervous system (CNS); from tissue; host or cells: peripheral tissues of the dosed animal, not specified", "conditions": "in vivo", "description": "Peripheral cannabinoid receptors exert a powerful inhibitory control over pain initiation, but the endogenous cannabinoid signal that normally engages this intrinsic analgesic mechanism is unknown."}, "[8]": {"system": "rodent models of inflammation and peripheral nerve injury", "test": "Rodent models of inflammation and peripheral nerve injury (persistent pain)", "format": "in vivo", "conditions": "prevented by CB1 receptor blockade", "description": "(§5) Peripheral cannabinoid receptors exert a powerful inhibitory control over pain initiation, but the endogenous cannabinoid signal that normally engages this intrinsic analgesic mechanism is unknown. […] CB1 receptor blockade prevents these effects. […] Accordingly, relatively brain-impermeant FAAH inhibitors, which strengthen this gating mechanism, offer a new approach to pain therapy (see, U.S. Provisional Patent Application Ser. No. 61/368,500, filed on Jul. 28, 2010, which is incorporated herein by reference in its entirety for all purposes, and specifically with respect to methods of assaying FAAH inhibitors for their biological and pharmaceutical properties, and the pharmacological properties of peripherally restricted FAAH inhibitors in general)."}, "[9]": {"test": "Transport system mediated extrusion from brain", "conditions": "in vivo", "description": "as §5"}, "[10]": {"conditions": "brain membrane fraction, read-out: FAAH inhibition in brain"}, "[11]": {"conditions": "liver membrane fraction, read-out: FAAH inhibition in liver"}}, "note": "Where two headings read alike, the source gives them in different places.", "data": [{"smiles": "NC(=O)c1cccc(-c2cc(O)cc(OC(=O)NC3CCCCC3)c2)c1", "note": "[Compound 1, [3-(3-carbamoylphenyl)-5-hydroxy-phenyl]N-cyclohexylcarbamate]", "values": [{"measurement": "difference between paw volume at each time point and basal paw volume (carrageenan-induced edema)", "setting": "[1]", "value": "reduced"}, {"measurement": "withdrawal threshold on inflamed ipsilateral paw, thermal hyperalgesia test", "setting": "[2]", "value": "increased"}, {"measurement": "withdrawal threshold on inflamed ipsilateral paw, mechanical hyperalgesia test", "setting": "[3]", "value": "increased"}, {"measurement": "inhibition at 1 mg/kg", "setting": "[4]; [10]", "value": "-4.2 ± 2.5", "unit": "%"}, {"measurement": "inhibition at 1 mg/kg", "setting": "[4]; [11]", "value": "89.5 ± 1.1", "unit": "%"}]}, {"smiles": "NC(=O)c1cccc(-c2cc(OC(=O)NC3CCCCC3)ccc2F)c1", "note": "[Compound 1e]", "values": [{"measurement": "entry into the brain after systemic administration", "setting": "[5]", "value": "enter the brain"}]}, {"smiles": "COc1ccc(OC(=O)NC2CCCCC2)cc1-c1cccc(C(N)=O)c1", "note": "[Compound 1c]", "values": [{"measurement": "entry into the brain after systemic administration", "setting": "[5]", "value": "enter the brain"}]}, {"smiles": "NC(=O)c1cccc(-c2cc(OC(=O)NC3CCCCC3)ccc2C(=O)O)c1", "note": "[ARN0715]", "values": [{"measurement": "IC50", "setting": "[6]; Table 2 (Example 5)", "value": 2.1, "unit": "µM"}, {"measurement": "FAAH inhibition in brain", "setting": "[4]; Table 2 (Example 5), brain", "value": "−2.1 ± 0.5", "unit": "%"}, {"measurement": "FAAH inhibition in liver", "setting": "[4]; Table 2 (Example 5), liver", "value": "86.3 ± 1.3", "unit": "%"}]}, {"smiles": "NC(=O)c1cccc(-c2cc(OC(=O)NC3CCCCC3)ccc2O)c1", "note": "[URB937]", "values": [{"measurement": "FAAH activity outside the central nervous system (CNS)", "setting": "[7]", "value": "suppressed"}, {"measurement": "anandamide levels outside the central nervous system (CNS)", "setting": "[7]", "value": "increased"}, {"measurement": "noxious stimulus-evoked neuronal activation in spinal cord regions implicated in nociceptive processing", "setting": "[8]", "value": "suppresses"}, {"measurement": "behavioral responses indicative of persistent pain", "setting": "[8]; rodent models of inflammation and peripheral nerve injury", "value": "attenuated"}, {"measurement": "susceptibility to transport system mediated extrusion from brain", "setting": "[9]", "value": "surprisingly susceptible"}]}, {"smiles": "NC(=O)c1cccc(-c2cc(OC(=O)NC3CCCCC3)ccc2N)c1", "note": "[Compound 1f]", "values": [{"measurement": "entry into the brain after systemic administration", "setting": "[5]", "value": "largely excluded"}]}, {"smiles": "CNC(=O)c1cccc(-c2cc(O)cc(OC(=O)NC3CCCCC3)c2)c1", "note": "[Compound 2, [3-hydroxy-5-[3-(methylcarbamoyl)phenyl]phenyl]N-cyclohexylcarbamate]", "values": [{"measurement": "IC50", "setting": "[6]; Table 1, in vitro FAAH assay", "value": 0.0003, "unit": "µM"}, {"measurement": "inhibition at 1 mg/kg", "setting": "[4]; [10]", "value": "-1.7 ± 0.2", "unit": "%"}, {"measurement": "inhibition at 1 mg/kg", "setting": "[4]; [11]", "value": "69.1 ± 3.5", "unit": "%"}]}, {"smiles": "Cc1ccc(OC(=O)NC2CCCCC2)cc1-c1cccc(C(N)=O)c1", "note": "[Compound 1d]", "values": [{"measurement": "entry into the brain after systemic administration", "setting": "[5]", "value": "enter the brain"}]}]}
